Reference: paper PMC6620467, “Gram-scale synthesis of FICZ, a photoreactive endogenous ligand of the aryl hydrocarbon receptor” (Scientific Reports, 2019)
Like-named read-outs stand apart in the source and are kept apart here. Blank lines part the entries; values can stand above or below the molecule they belong to.

Tests used:
[1] = Photostability test of DMSO-d6 solutions by 1H NMR (maleic acid internal reference); format: physicochemical
Procedure: Maleic acid was employed as an internal NMR reference.
The solution was analyzed by ^1H NMR as time point zero. 0.5 mL of the solution was placed into separate ICH 20 mL Flint clear glass bottles that were irradiated in a photostability chamber with illuminance set to 11000 lux as measured by a digital light meter. The contents of separate bottles were checked by ^1H NMR at 1 h, 2 h, 3 h, 4 h, 5 h, 7 h, 10 h, 16 h, and 24 h. […] A parallel experiment was run under the same conditions with ICZ (12.4 mg) and maleic acid (6.4 mg) in 5.1 mL of DMSO-d6 and stability data collected at 1 h, 2 h, 4 h, 6 h, 12 h, 18 h, and 24 h.
The solution was analyzed by ^1H NMR as time point zero. 0.5 mL of the solution was placed into separate ICH 20 mL Flint clear glass bottles that were placed in direct sunlight with illuminance of 63000 lux as measured by a digital light meter (from 1:00 PM to 3:40 PM on March 17, 2015, a sunny day with minimal clouds in Durham, NC, USA). The contents of separate bottles were checked by ^1H NMR at 1.5 min, 3 min, 10 min, 30 min, and 93 min.
The solution was analyzed by NMR as time point zero. The solution was then divided into four ICH 20 ml Flint clear glass bottles: Bottle A was exposed to air and was unprotected from the bright light; Bottle B: was flushed with nitrogen and left unprotected from the bright light; Bottle C was exposed to air but covered by aluminum-foil; and Bottle D was flushed with nitrogen and covered by aluminum foil. All bottles were placed in a photostability chamber with illuminance set to 11100 lux. The contents of each bottle were checked by ^1H NMR at 1 d, 4 d, 8 d, 14 d and 21 d using the quantification procedure described in Method 1.

human AhR = target: T1, human AhR (Homo sapiens, UniProt P35869); test: cyp1a1 promoter β-lactamase reporter gene assay for AhR activation (CYP1A1-bla-LS180 cells)
T1 sequence (P35869 11-848): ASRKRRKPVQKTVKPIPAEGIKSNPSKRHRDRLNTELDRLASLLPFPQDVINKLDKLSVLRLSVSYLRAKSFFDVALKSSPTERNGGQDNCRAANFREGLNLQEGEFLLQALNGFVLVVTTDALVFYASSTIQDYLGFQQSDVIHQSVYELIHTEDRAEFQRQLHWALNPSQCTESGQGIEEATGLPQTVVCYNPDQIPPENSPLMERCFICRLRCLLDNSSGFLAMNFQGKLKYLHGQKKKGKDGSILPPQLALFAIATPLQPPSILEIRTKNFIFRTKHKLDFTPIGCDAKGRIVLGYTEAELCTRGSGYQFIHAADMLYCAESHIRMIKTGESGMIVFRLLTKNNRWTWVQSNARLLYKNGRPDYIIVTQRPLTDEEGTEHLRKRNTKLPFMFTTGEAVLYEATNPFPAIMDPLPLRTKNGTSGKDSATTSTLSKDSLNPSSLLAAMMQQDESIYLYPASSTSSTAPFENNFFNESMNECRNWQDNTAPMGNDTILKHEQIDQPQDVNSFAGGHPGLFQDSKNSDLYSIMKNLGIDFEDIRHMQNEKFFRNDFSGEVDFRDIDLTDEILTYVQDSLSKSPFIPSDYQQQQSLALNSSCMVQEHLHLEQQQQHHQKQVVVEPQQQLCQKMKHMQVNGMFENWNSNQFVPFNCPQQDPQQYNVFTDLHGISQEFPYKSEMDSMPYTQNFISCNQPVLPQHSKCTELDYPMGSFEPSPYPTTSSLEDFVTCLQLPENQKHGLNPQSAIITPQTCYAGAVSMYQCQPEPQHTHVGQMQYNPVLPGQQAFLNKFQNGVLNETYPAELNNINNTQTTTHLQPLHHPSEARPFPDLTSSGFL
Source text: We employed a commercially available assay for AhR ligands in which a cell line had been engineered to express a reporter gene composed of the cyp1a1 promoter driving expression of a β-lactamase reporter. AhR ligands were detected by the increased expression of β-lactamase, which was quantified using a fluorescent substrate (see Materials and methods).
Intestinal human colon adenocarcinoma LS180 cells stably transfected with a β-lactamase reporter gene downstream of the cyp1a1 promoter were obtained from Invitrogen (catalog number K1678) and were used in accordance with the protocol described at https://www.thermofisher.com/document-connect/document-connect.html?url=https%3A%2F%2Fassets.thermofisher.com%2FTFS-Assets%2FLSG%2Fmanuals%2Fgeneblazer_cyp1a1blals0180_man.pdf, but adapted to run in 384-well plates.
CYP1A1-bla-LS180 cells (Invitrogen, catalog number K1678) were suspended in assay media (OptiMEM, 1% charcoal stripped serum, 1 mM sodium pyruvate, 0.1 mM NEAA) at a density of 20000 cells/mL. The compounds were dissolved in DMSO at a concentration of 10 mM. 0.5 mL of the compound solutions were added to a 384-well black, clear bottom, cell-coat assay plate (Griener Bio-one). […] A 50 μL aliquot of cell suspension was added to each well, and the compound plate was incubated overnight at 37 °C in 5% CO2. The plate was equilibrated at room temperature for 30 min before adding 10 μL of the LiveBLAzer™ FRET B/G substrate solution (Life Technologies) to each well. The plate was incubated for 90 min at room temperature in the dark before being read on a Perkin Elmer Envision using the bottom read fluorescence program with excitation at 400 nm and detection at 460/535 nm.

Structure (SMILES): O=Cc1c2[nH]c3ccccc3c2cc2[nH]c3ccccc3c12 [FICZ (1), 6-Formylindolo[3,2-b]carbazole]
- time to complete decomposition ([1]; Condition A: DMSO solution, bright light (11000 lux) and air): ≤ 1 days
- decomposition, Condition C ([1]; DMSO solution, air, protected from light with aluminum foil, over 28 d): further slowed, but did not prevent the decomposition
- decomposition, Condition B ([1]; DMSO solution, bottle flushed with nitrogen, 11000 lux light, over 28 d): much slower
- decomposition, Condition D ([1]; DMSO solution, removal of air and protection from light, over 28 d): slowest rate of decomposition
- half-life at 3 mg/mL ([1]; DMSO-d6 solution in clear Flint glass bottle, DMSO-d6 solution, air and light, 11000 lux, clear Flint bottle, read-out: half-life of decomposition (converted)): ~180 min
- half-life at 2.125 mg/mL ([1]; DMSO-d6 solution in clear Flint glass bottle, DMSO-d6 solution, air, direct sunlight 63000 lux, read-out: half-life of decomposition): ~30 min
- stability as pure solid ([1]; pure solid): stable

Structure (SMILES): OCc1c2[nH]c3ccccc3c2cc2[nH]c3ccccc3c12 [Compound 11, (5,11-Dihydroindolo[3,2-b]carbazol-6-yl)methanol]
- EC50 (human AhR): 160 ± 90 nM

Structure (SMILES): Clc1cc2c(cc1Cl)Oc1cc(Cl)c(Cl)cc1O2 [TCDD, reference compound]
- EC50 (human AhR; read-out: EC50 of standard AhR ligand in cyp1a1 reporter assay, control experiments, data not shown): 0.31 nM

Structure (SMILES): c1ccc2c(c1)[nH]c1cc3c(cc12)[nH]c1ccccc13 [ICZ (12), reference compound]
- decomposition rate relative to FICZ (1), times slower ([1]; DMSO-d6 solution, air and light, 11000 lux, identical conditions): at least 10 times
- EC50 (human AhR): 30 ± 10 nM

Structure (SMILES): O=C1c2[nH]c3ccccc3c2C(=O)c2[nH]c3ccccc3c21 [Compound 13, Indolo[3,2-b]carbazole-6,12-dione]
- EC50 (human AhR): 70 ± 15 nM
- decrease in potency for activation of AhR versus FICZ (1) (human AhR; cyp1a1 reporter gene assay): at least 7 fold

More lines, now with the values ahead:

- EC50 (human AhR): 160 ± 40 nM
Structure (SMILES): CCOC(=O)c1c2[nH]c3ccccc3c2cc2[nH]c3ccccc3c12 [Compound 10, Ethyl 5,11-dihydroindolo[3,2-b]carbazole-6-carboxylate]

- EC50 (human AhR): 400 ± 100 nM
- potency as AhR agonist relative to FICZ (1), times less potent (human AhR; cyp1a1 reporter gene assay): 40 times
Structure (SMILES): O=C(O)c1c2[nH]c3ccccc3c2cc2[nH]c3ccccc3c12 [CICZ (9), 5,11-Dihydroindolo[3,2-b]carbazole-6-carboxylic acid]
